Data taken from publication PMC12481576, “Barbituric Acid Derivatives as Covalent Inhibitors of Leishmania braziliensis Dihydroorotate Dehydrogenase” (Journal of Medicinal Chemistry, 2025).
“And” between values parts separate entries of the source, which are not always exact repeats. Equal values may be shown once. Read-outs that look alike come from different tables or passages of the source.

Legend:
LbDHODH = LbDHODH (Leishmania braziliensis, UniProt E9AI53); assay: biochemical; conditions: for IC50: LbDHODH
Sequence of LbDHODH (E9AI53 entry or part of it): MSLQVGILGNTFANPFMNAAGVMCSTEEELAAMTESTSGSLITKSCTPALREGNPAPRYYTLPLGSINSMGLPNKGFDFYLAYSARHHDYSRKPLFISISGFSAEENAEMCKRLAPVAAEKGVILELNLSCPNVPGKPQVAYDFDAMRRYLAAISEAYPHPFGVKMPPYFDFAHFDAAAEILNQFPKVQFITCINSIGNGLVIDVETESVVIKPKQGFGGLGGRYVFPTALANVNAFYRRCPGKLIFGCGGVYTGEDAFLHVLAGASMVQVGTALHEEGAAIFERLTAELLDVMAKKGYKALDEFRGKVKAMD
Summary of the method: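 Covalent inactivation constant kinact/KI came from linear fitting of early kobs values against inhibitor concentration. Activity followed by A610 (DCIP, DHO substrate) every 3 s over 60 s in Tris pH 8.15/KCl/Triton X-100 buffer, in triplicate; single-point 100 μM screen run at 0 h and after 4-h preincubation.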

[1] = tested on: Leishmania braziliensis promastigotes; assay: Leishmanicidal activity, promastigote growth (SYBR Green, 72 h); assay type: cell-based, Leishmania (V.) braziliensis (MHOM/BR/1975/M2904); conditions: Leishmania braziliensis, L. braziliensis promastigotes, max 200 μM
Summary of the method: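 Cultures at 4 × 10^6 parasites/mL were exposed 72 h to serially decreasing compound levels, top 200 μM, with final DMSO 0.5% and medium-only control.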

[2] = Cell viability / cytotoxicity assay (PrestoBlue, 72 h); assay type: cell-based; conditions: human; THP-1 cell line, 72 h, max 200 μM; read-out: CC50
Summary of the method: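 Viability was measured with PrestoBlue fluorescence (560/590 nm, 2 h) after 72 h compound exposure at 37 °C. Test concentrations descended from 200 μM. The THP-1 monocytes had first been differentiated with 150 ng/mL phorbol myristate acetate for 48 h, then rested 24 h.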

in vitro = assay: in vitro
Description: Solutions of the compounds were prepared in duplicate by diluting the stock solutions (10 mM) in phosphate buffered saline (PBS) pH 7.4 at a final concentration of 10 μM (5% DMSO). The solutions diluted in PBS pH 7.4 were then added to the donor portion of the plate (300 μL/well), while in the acceptor portion PBS pH 7.4 (200 μL/well) was added. The two portions of the plate were then coupled, and the system was incubated for 6 h at room temperature. Samples of the initial donor solution (T0) were collected at the beginning (T0) and stored at 5 °C. The final concentrations of compounds in the donor, acceptor and T0 wells were quantified by LC-MS/MS.

[3] = for Remarks (mouse microsomal stability study): NCF = no cofactor control
[4] = Mouse liver microsome stability in the absence of cofactors (NCF); conditions: mouse, microsomes, pH 7.4, % Remaining, T=60 NCF, 1 µM, 60 min, no cofactor (NCF)
[5] = 0 h, pH 8.15, read-out: LbDHODH Activity±SD (%)
[6] = 4 h, pH 8.15, read-out: LbDHODH Activity±SD (%)
[7] = IC50 0 h, without preincubation
[8] = read-out: Single dose (0h) % activity
[9] = read-out: Single dose (4h) % activity
[10] = average of n=2, 10µM, PBS pH 7.4/7.4, 6h at room temperature
[11] = mouse liver microsomes, 0.4 mg/ml, 1 µM

COc1cc(C=C2C(=O)NC(=O)NC2=O)ccc1O [2c, 5-(4-Hydroxy-3-methoxybenzylidene)pyrimidine-2,4,6(1H,3H,5H)-trione]
activity at 0.390625 µM (LbDHODH; [5]): 96 ± 9% | activity at 0.78125 µM (LbDHODH; [5]): 92 ± 9% | activity at 1.5625 µM (LbDHODH; [5]): 82 ± 23% | activity at 3.125 µM (LbDHODH; [5]): 77 ± 7% | activity at 6.25 µM (LbDHODH; [5]): 46 ± 4% | activity at 12.5 µM (LbDHODH; [5]): 36 ± 8% | activity at 25 µM (LbDHODH; [5]): 22 ± 2% | activity at 50 µM (LbDHODH; [5]): 13 ± 1% | activity at 100 µM (LbDHODH; [5]): 7 ± 4% | activity at 200 µM (LbDHODH; [5]): 5 ± 0.4% | activity at 400 µM (LbDHODH; [5]): 6 ± 1% | activity at 0.390625 µM (LbDHODH; [6]): 102 ± 10% | activity at 0.78125 µM (LbDHODH; [6]): 97 ± 9% | activity at 1.5625 µM (LbDHODH; [6]): 96 ± 12% | activity at 3.125 µM (LbDHODH; [6]): 90 ± 6% | activity at 6.25 µM (LbDHODH; [6]): 86 ± 7% | activity at 12.5 µM (LbDHODH; [6]): 83 ± 8% | activity at 25 µM (LbDHODH; [6]): 72 ± 5% | activity at 50 µM (LbDHODH; [6]): 62 ± 8% | activity at 100 µM (LbDHODH; [6]): 52 ± 6% | activity at 200 µM (LbDHODH; [6]): 32 ± 2% | activity at 400 µM (LbDHODH; [6]): 23 ± 3% | IC50 (LbDHODH; [7]): 7 ± 1 µM | IC50 (LbDHODH; IC50 4 h, 4-h preincubation): 89 ± 4 µM | activity at 100 µM (LbDHODH; [8]): 7 ± 3% | activity at 100 µM (LbDHODH; [9]): 21 ± 5% | EC50 [1]: > 200 µM | CC50 at 72 h [2]: > 200 µM | recovery at 6 h, 10 µM (in vitro; PAMPA, pH 7.4, % Recovery n=1, replicate n=1, 10µM, PBS pH 7.4/7.4, 6h at room temperature): 86.6% | recovery at 6 h, 10 µM (in vitro; PAMPA, pH 7.4, % Recovery n=2, replicate n=2, 10µM, PBS pH 7.4/7.4, 6h at room temperature): 96% | recovery at 6 h, 10 µM (in vitro; PAMPA, pH 7.4, Avg % Recovery, average of n=2, 10µM, PBS pH 7.4/7.4, 6h at room temperature): 91.3% | Papp (in vitro; PAMPA, pH 7.4, permeability, PBS pH 7.4, 10 μM, 6 h): 0.84 ×10⁻⁶ cm/s | Avg Log Pe (cm/sec) (in vitro; [10]): -6.08 cm/sec and -6.1 cm/sec | Avg Pe (in vitro; [10]): 0.843 ×10⁻⁶ cm/s and 0.84 ×10⁻⁶ cm/s | LogPe (cm/sec) n1 (in vitro; replicate n1, calculation section, 10µM, PBS pH 7.4/7.4, 6h): -6.16 cm/sec | LogPe (cm/sec) n2 (in vitro; replicate n2, calculation section, 10µM, PBS pH 7.4/7.4, 6h): -6.00 cm/sec | Pe (nm/sec) n=1 (in vitro; replicate n=1, 10µM (5% DMSO), PBS pH 7.4/7.4, 6h at room temperature, LC-MS/MS): 6.94 nm/s and 6.9 nm/s | % Recovery n=1 (in vitro; replicate n=1, 10µM, PBS pH 7.4/7.4, 6h at room temperature): 86.6% | Pe (nm/sec) n=2 (in vitro; replicate n=2, 10µM (5% DMSO), PBS pH 7.4/7.4, 6h at room temperature, LC-MS/MS): 9.91 nm/s and 9.9 nm/s | % Recovery n=2 (in vitro; replicate n=2, 10µM, PBS pH 7.4/7.4, 6h at room temperature): 96.0% | Calculated T-half (min), Average ([3]; mouse liver microsomes (CD1 male), 0.4 mg/ml protein, test conc 1 µM, average of n=1 and n=2): 6.0 min | Calculated T-half (min), n=1 ([3]; mouse liver microsomes (CD1 male), 0.4 mg/ml protein, test conc 1 µM, replicate n=1): 6.12 min and 6.1 min | Calculated T-half (min), n=2 ([3]; mouse liver microsomes (CD1 male), 0.4 mg/ml protein, test conc 1 µM, replicate n=2): 5.82 min and 5.8 min | Calculated CLint, app (µl/min/mg), n=1 ([3]; mouse liver microsomes, 0.4 mg/ml protein, 1 µM, replicate n=1): 283.1 µL/min/mg | Calculated CLint, app (µl/min/mg), n=2 ([3]; mouse liver microsomes, 0.4 mg/ml protein, 1 µM, replicate n=2): 297.8 µL/min/mg | Modified T-half (min), Average ([3]; mouse liver microsomes, 0.4 mg/ml, 1 µM, average, limited to T Half range 3.00 - […]): 6.0 min | Remarks (mouse microsomal stability study) [3, 11]: Low NCF | mouse liver microsomes T-half ([3]; mouse liver microsomes, NADPH, 1 μM): 6.0 min and 6 min | remaining at 1 h, 1 µM ([4]; n=1, mouse liver microsomes, n=1): 52.4% | remaining at 1 h, 1 µM ([4]; n=2, mouse liver microsomes, n=2): 51.5%

O=C1NC(=O)C(=Cc2ccc(O)c([N+](=O)[O-])c2)C(=O)N1 [2d, 5-(4-Hydroxy-3-nitrobenzylidene)pyrimidine-2,4,6(1H,3H,5H)-trione]
activity at 0.390625 µM (LbDHODH; [5]): 99 ± 9% | activity at 0.78125 µM (LbDHODH; [5]): 75 ± 6% | activity at 1.5625 µM (LbDHODH; [5]): 60 ± 5% | activity at 3.125 µM (LbDHODH; [5]): 46 ± 5% | activity at 6.25 µM (LbDHODH; [5]): 25 ± 2% | activity at 12.5 µM (LbDHODH; [5]): 13 ± 1% | activity at 25 µM (LbDHODH; [5]): 11 ± 3% | activity at 50 µM (LbDHODH; [5]): 8 ± 1% | activity at 100 µM (LbDHODH; [5]): 6 ± 1% | activity at 200 µM (LbDHODH; [5]): 9 ± 4% | activity at 400 µM (LbDHODH; [5]): 6 ± 2% | activity at 0.390625 µM (LbDHODH; [6]): 75 ± 7% | activity at 0.78125 µM (LbDHODH; [6]): 76 ± 8% | activity at 1.5625 µM (LbDHODH; [6]): 72 ± 11% | activity at 3.125 µM (LbDHODH; [6]): 71 ± 6% | activity at 6.25 µM (LbDHODH; [6]): 57 ± 7% | activity at 12.5 µM (LbDHODH; [6]): 52 ± 6% | activity at 25 µM (LbDHODH; [6]): 49 ± 7% | activity at 50 µM (LbDHODH; [6]): 39 ± 7% | activity at 100 µM (LbDHODH; [6]): 28 ± 3% | activity at 200 µM (LbDHODH; [6]): 21 ± 8% | activity at 400 µM (LbDHODH; [6]): 12 ± 4% | IC50 (LbDHODH; [7]): 3 ± 1 µM | IC50 (LbDHODH; IC50 4 h, 4-h preincubation): 13 ± 2 µM | activity at 100 µM (LbDHODH; [8]): 5 ± 2% | activity at 100 µM (LbDHODH; [9]): 16 ± 3% | EC50 [1]: 152 ± 28 µM | CC50 at 72 h [2]: > 200 µM | Remarks (PAMPA) (in vitro; 10µM, PBS pH 7.4/7.4, 6h at room temperature, LC-MS/MS): Poor detection sensitivity/Compound might be unstable in assay matrix | Remarks (mouse microsomal stability study) [3, 11]: Poor detection sensitivity/Compound might be unstable in assay matrix
